# “Also recorded” adds a separate entry of the source. Read-outs that look alike come from different tables or passages of the source.
# What was measured:
# [1] = system: Z. mobilis; experiment: Bioscreen growth of Z. mobilis with pretreatment inhibitors (strain not specified); format: cell-based, Zymomonas mobilis; settings: for Time to complete active growth and reach the stationary phase: in the presence of the inhibitor, 11 h without any inhibitor (FIGS. 5A-5D); for Relative inhibitory effect on Z. mobilis among vanillin, furfural and HMF: Table 4 conditions
# Method: FIGS. 5A-5E. Z. mobilis Hfq conferred tolerance to different classes of pretreatment inhibitors. Z. mobilis strains were grown in RM (pH 5.0) overnight, 5-μL culture were then transferred into 250-μL RM media in the Bioscreen plate. The growth differences of different strains were monitored by Bioscreen (Growth Curves USA, NJ) under anaerobic conditions in RM, pH 5.0 (A), RM with 1 g/L vanillin, pH 5.0 (B), 1 g/L furfural, pH 5.0 (C), 1 g/L HMF, pH 5.0 (D) and 0.001% H2O2 (E). Strains included in this study are: ZM4: Zymomonas mobilis ZM4 wild-type; AcR: ZM4 acetate tolerant mutant; AcRIM0347: AcR insertional mutant of ZMO0347; AcRIM0347 (p42-0347): AcRIM0347 containing gateway plasmid p42-0347 over-expressing ZM4 gene ZMO0347. This experiment has been repeated at least three times with similar result for hydrogen peroxide growth and in duplicate for the vanillin growth.
# (§1) American Type Culture Collection (ATCC31821) and the Z. mobilis acetate tolerant strain AcR has been described previously (Joachimsthal et al. 2000). ZM4 and AcR were cultured in RM medium at 30° C. S. cerevisiae wild-type, deletion mutant and GST-fusion ORF over-expression strains were obtained through Open Biosystems (Huntsville, Ala.). S. cerevisiae strains were cultured in rich YPD media. CM media with 2% glucose was used for S. cerevisiae wild-type and S. cerevisiae deletion mutants, CM media with 2% glucose minus uracil was used for S. cerevisiae GST-over expressing strains, 2% galactose was used to induce the GST-fusion strains. Plasmid-containing strains were routinely grown with antibiotics at the following concentrations (μg/mL): kanamycin of 50 for E. coli and 200 for ZM4; tetracycline, 10 for E. coli and 20 for ZM4; and gentamicin, 10 for E. coli. G418 of 200 for S. cerevisiae YKO deletion mutants. Growth was monitored turbidometrically by measuring optical density at 600nm periodically with the Bioscreen C automated microbiology growth curve analysis system (Growth Curve USA, Piscataway, N.J.).
# [2] = system: AcRIM0347 (p42-0347); format: cell-based, Zymomonas mobilis; settings: for Lag phase of AcRIM0347 (p42-0347) versus AcRIM0347 grown with inhibitor: Table 4, FIGS. 5A-5D
# Method: (§2) FIGS. 3A-3C. […] Z. mobilis strains were grown in RM (pH5.0) overnight, 20-μL culture were then transferred into 250-μL, RM media in the Bioscreen plate. […] Strains included in this study are: ZM4: Zymomonas mobilis ZM4 wild-type; AcR: ZM4 acetate tolerant mutant (Joachimstahl 1998); ZM4 (p42-0347): ZM4 containing a gateway plasmid p42-0347 over-expressing ZM4 gene ZMO0347; AcRIM0347: AcR insertional mutant of ZMO0347; AcRIM0347 (p42-0347): AcRIM0347 containing gateway plasmid p42-0347 over-expressing ZM4 gene ZMO0347. […] Triplicates were used for each condition.
# (§3) FIGS. 4A-4E. […] Z. mobilis strains were grown in RM (pH5.0) overnight, 5-μL culture were then transferred into 250-μL RM media in the Bioscreen plate. […] Strains included in this study are: ZM4: Zymomonas mobilis ZM4 wild-type; AcR: ZM4 acetate tolerant mutant; ZM4 (p42-0347): ZM4 containing a gateway plasmid p42-0347 to express ZM4 gene ZMO0347; AcRIM0347: AcR insertional mutant of ZMO0347; AcRIM0347 (p42-0347): AcRIM0347 containing gateway plasmid p42-0347. […] Duplicate biological replicates were used for each condition.
# (§4) FIGS. 5A-5E. […] Z. mobilis strains were grown in RM (pH 5.0) overnight, 5-μL culture were then transferred into 250-μL RM media in the Bioscreen plate. […] Strains included in this study are: ZM4: Zymomonas mobilis ZM4 wild-type; AcR: ZM4 acetate tolerant mutant; AcRIM0347: AcR insertional mutant of ZMO0347; AcRIM0347 (p42-0347): AcRIM0347 containing gateway plasmid p42-0347 over-expressing ZM4 gene ZMO0347.
# as §1
# [3] = system: AcRIM0347: AcR insertional mutant of ZMO0347; format: cell-based, Zymomonas mobilis; settings: for Final Cell Density / Growth rate: AcRIM0347; for Growth of hfq mutant AcRIM0347 in the presence of acetate salt / Reduction of growth rate and final cell density of AcRIM0347 compared to parental strain AcR: 195 mM in RM
# Method: as §2, §3, §4, §1
# [4] = system: AcR: ZM4 acetate tolerant mutant; format: cell-based, Zymomonas mobilis; settings: for Final Cell Density / Growth rate: AcR
# Method: as §2, §3, §4, §1
# [5] = system: Zymomonas mobilis ZM4 wild-type; experiment: Bioscreen growth of Z. mobilis ZM4 wild-type in RM with inhibitors; format: cell-based; settings: for Final Cell Density / Growth rate: ZM4; for Relative inhibitory effect on wild-type Z. mobilis growth among sodium and acetate salts: 195 mM in RM
# Method: as §2, §3, §4, §1
# [6] = system: S. cerevisiae Lsm protein over-expressing strains; experiment: Bioscreen growth of S. cerevisiae Lsm protein over-expressing (GST) strains with inhibitors; format: cell-based
# Method: (§5) FIGS. 6A-6B. […] S. cerevisiae strains were grown in CM with 2% glucose for wild-type BY4741 and the deletion mutants, CM with 2% glucose minus uracil for GST over-expression strains. Five-μL culture was then transferred into 300-μL CM broth in the Bioscreen plate.
# (§6) FIGS. 7A-7P. […] S. cerevisiae strains were grown in CM with 2% glucose (CM+glucose) for wild-type BY4741 and the deletion mutants, CM with 2% glucose and 2% galactose minus uracil (CM+glucose+2% galactose) for GST overexpression strains. A 5-μL culture was then transferred into 250-μL CM broth in the Bioscreen plate.
# as §1
# [7] = system: ZM4 (p42-0347); experiment: Bioscreen growth of ZM4 (p42-0347) in RM with sodium and acetate ions; format: cell-based, Zymomonas mobilis; settings: for Final Cell Density / Growth rate: ZM4 (p42-0347), RM pH 5.0 supplemented with 195 mM of the chemical, anaerobic
# Method: as §2, §3, §1
# [8] = system: ZM4; settings: ethanol production; cited from earlier work
# [9] = system: S. cerevisiae Lsm deletion mutants; format: cell-based
# Method: as §5, §6
# American Type Culture Collection (ATCC31821) and the Z. mobilis acetate tolerant strain AcR has been described previously (Joachimsthal et al. 2000). ZM4 and AcR were cultured in RM medium at 30° C. S. cerevisiae wild-type, deletion mutant and GST-fusion ORF over-expression strains were obtained through Open Biosystems (Huntsville, Ala.). S. cerevisiae strains were cultured in rich YPD media. […] Growth was monitored turbidometrically by measuring optical density at 600nm periodically with the Bioscreen C automated microbiology growth curve analysis system (Growth Curve USA, Piscataway, N.J.).
# [10] = system: AcR mutant; settings: cited from earlier work
# [11] = pH 5.0; cited from earlier work
# [12] = system: recombinant Zymomonas mobilis 8b; settings: pure glucose/xylose solutions; cited from earlier work
# [13] = system: Zymomonas mobilis; settings: cited from earlier work
# [14] = AcRIM0347(p42-0347), RM with HMF 0.75 g/L, furfural or vanillin 1 g/L
# [15] = RM with HMF 0.75 g/L, furfural or vanillin 1 g/L
# [16] = AcRIM0347 (p42-0347), RM pH 5.0 supplemented with 195 mM of the chemical, anaerobic
# [17] = RM pH 5.0 supplemented with 195 mM of the chemical, anaerobic
# [18] = RM pH 5.0 supplemented with 195 mM of the chemical, anaerobic, NA = lack of growth
# [19] = 16 g/L (195 mM) sodium acetate in RM
Structure (SMILES),Time to complete active growth and reach the stationary phase [1],"Final Cell Density [2, 14] [OD600 nm]","Growth rate [2, 14] [h⁻¹]",Lag phase of AcRIM0347 (p42-0347) versus AcRIM0347 grown with inhibitor [2],"Final Cell Density [3, 15] [OD600 nm]","Growth rate [3, 15] [h⁻¹]","Final Cell Density [4, 15] [OD600 nm]","Growth rate [4, 15] [h⁻¹]","Final Cell Density [5, 15] [OD600 nm]","Growth rate [5, 15] [h⁻¹]","Final Cell Density [2, 16] [OD600 nm]","Growth rate [2, 16] [h⁻¹]","Final Cell Density [4, 17] [OD600 nm]","Growth rate [4, 17] [h⁻¹]",Final Cell Density [7] [OD600 nm],Growth rate [7] [h⁻¹],"Final Cell Density [5, 18] [OD600 nm]","Growth rate [5, 18] [h⁻¹]",also measured
"O=Cc1ccco1 [Furfural, furfural]",~19 h,0.80 ± 0.02,0.20 ± 0.01,shorter lag phases,0.67 ± 0.001,0.19 ± 0.03,0.89 ± 0.009,0.30 ± 0.005,0.88 ± 0.006,0.31 ± 0.01,–,–,–,–,–,–,–,–,Growth of Lsm overexpression strains with inhibitor ([6]; 1.5 g/L): slight growth advantage
"OO [H2O2, hydrogen peroxide]",–,–,–,–,–,–,–,–,–,–,–,–,–,–,–,–,–,–,Growth of AcRIM0347(p42-0347) in RM medium with H2O2 ([2]; 0.001% H2O2): to grow; Growth of AcRIM0347 in RM medium with H2O2 ([3]; 0.001% H2O2): no observable growth; Growth of AcR in RM medium with H2O2 ([4]; 0.001% H2O2): grew well; Growth of ZM4 in RM medium with H2O2 ([5]; 0.001% H2O2): grew well
"O=Cc1ccc(CO)o1 [HMF, hydroxymethyl furfural]",about 16 h,0.78 ± 0.02,0.22 ± 0.001,shorter lag phases,0.67 ± 0.03,0.19 ± 0.02,0.96 ± 0.006,0.35 ± 0.01,0.93 ± 0.003,0.36 ± 0.02,–,–,–,–,–,–,–,–,"Relative inhibitory effect on Z. mobilis among vanillin, furfural and HMF [1]: least effect; Growth of Lsm overexpression strains with inhibitor ([6]; 1.5 g/L): slight growth advantage"
"CC(=O)[O-].[K+] [Kac, potassium acetate]",–,–,–,–,–,–,–,–,–,–,0.28 ± 0.007,0.09 ± 0.003,0.40 ± 0.000,0.12 ± 0.000,0.34 ± 0.004,0.12 ± 0.006,0.42 ± 0.002,0.15 ± 0.004,Growth of hfq mutant AcRIM0347 in the presence of acetate salt [3]: unable to grow
"CC(=O)O.N [NH4OAc, ammonium acetate]",–,–,–,–,–,–,–,–,–,–,0.32 ± 0.007,0.22 ± 0.002,0.42 ± 0.006,0.19 ± 0.005,0.37 ± 0.008,0.19 ± 0.007,0.43 ± 0.01,0.20 ± 0.008,Growth of hfq mutant AcRIM0347 in the presence of acetate salt [3]: unable to grow
"CC(=O)[O-].[Na+] [NaAc, sodium acetate]",–,–,–,–,–,–,–,–,–,–,0.45 ± 0.002,0.16 ± 0.002,0.63 ± 0.02,0.29 ± 0.04,0.59 ± 0.002,0.27 ± 0.004,–,–,"Reduction of growth rate and final cell density of AcRIM0347 compared to parental strain AcR [3]: about 60%; Final Cell Density [3, 18]: 0.25 ± 0.001 OD600 nm; Growth rate [3, 18]: 0.12 ± 0.004 h⁻¹; Growth of ZM4 (p42-0347) in the presence of sodium acetate [7, 19]: able to grow; Relative inhibitory effect on wild-type Z. mobilis growth among sodium and acetate salts [5]: most significant inhibitory effect; Growth of wild-type ZM4 in the presence of sodium acetate [5, 19]: unable to grow; also recorded: completely inhibited; Sodium acetate concentration above which parent ZM4 was inhibited significantly [8]: above 12 g/L; Growth of Lsm deletion mutants in the presence of sodium acetate ([9]; sodium acetate 40 g/L, Lsm1, 6, 7, 9, 12, 13, 16 deletions): negative effects on the growth; Sodium acetate concentration at which AcR was capable of efficient ethanol production [10]: 20 g/L; Growth of Lsm protein over-expressing strains in the presence of sodium acetate ([6]; sodium acetate 40 g/L, Lsm1, 6, 9, 12, 13, 16): enhanced growth"
"[Cl-].[Na+] [NaCl, sodium chloride]",–,–,–,–,–,–,–,–,–,–,0.72 ± 0.02,0.22 ± 0.009,0.96 ± 0.01,0.29 ± 0.005,0.84 ± 0.01,0.25 ± 0.008,0.73 ± 0.01,0.24 ± 0.008,"Reduction of growth rate and final cell density of AcRIM0347 compared to parental strain AcR [3]: reduced by at least a quarter; Final Cell Density [3, 18]: 0.73 ± 0.03 OD600 nm; Growth rate [3, 18]: 0.21 ± 0.008 h⁻¹; Relative inhibitory effect on wild-type Z. mobilis growth among sodium and acetate salts [5]: least negative influence; Growth differences between Lsm mutants and wild-type BY4741 ([9]; 305 mM NaCl in CM broth): not observed; Growth of Lsm overexpression strains compared to wild-type BY4741 ([6]; 305 mM NaCl): grew similarly to wild-type BY4741"
"COc1cc(C=O)ccc1O [Vanillin, vanillin]",~21 h,0.70 ± 0.01,0.20 ± 0.003,shorter lag phases,0.66 ± 0.01,0.20 ± 0.006,0.71 ± 0.01,0.26 ± 0.01,0.69 ± 0.006,0.26 ± 0.001,–,–,–,–,–,–,–,–,"Relative inhibitory effect on Z. mobilis among vanillin, furfural and HMF [1]: most significant inhibitory effect; Growth of Lsm overexpression strains with inhibitor ([6]; 0.75 g/L): detrimental effect on growth"
CC(=O)O [acetic acid],–,–,–,–,–,–,–,–,–,–,–,–,–,–,–,–,–,–,Fraction in the uncharged and undissociated form (HAc) [11]: 36%; Acetic acid concentration tolerated [12]: up to 16 g/L
CCO [ethanol],–,–,–,–,–,–,–,–,–,–,–,–,–,–,–,–,–,–,Ethanol tolerance [13]: 12%

# Reference: patent US8790902B2, “Microorganisms having enhanced tolerance to inhibitors and stress” (UT-Batelle, LLC, priority 2009, dated 2014)
